Usually IC50 stands for the point on the concentration scale where inhibition reaches its midpoint. In general, Ki refers to a measure of affinity in units of concentration, obtained from inhibition or displacement.

The species entered for experiment [1] is Cavia porcellus. Description: Opioid activity in guinea pig ileum. Type of experiment: functional.
Experiment [2] addresses T1, Kappa-type opioid receptor (Cavia porcellus, UniProt P41144). Nature of the experiment: Binding affinity of compound was measured on Opioid receptor kappa 1 by competitive inhibition of radioligand [3H]diprenorphine using cloned receptors transiently expressed on COS-7 (monkey kidney) cells. Type of experiment: cell-based.
The target in experiment [3] is T2, Mu-type opioid receptor (Cavia porcellus, UniProt P97266). Nature of the experiment: Binding affinity of compound was measured on Opioid receptor mu 1 by competitive inhibition of radioligand [3H]DAMGO using cloned receptors transiently expressed on COS-7 (monkey kidney) cells. Type of experiment: cell-based.
Experiment [4] addresses T3, Delta-type opioid receptor (Homo sapiens, UniProt P41143). Nature of the experiment: Binding affinity of compound was measured on Opioid receptor delta 1 by competitive inhibition of radioligand [3H]DPDPE using cloned receptors transiently expressed on COS-7 (monkey kidney) cells. Type of experiment: cell-based.
The target of experiment [5] is T1, Kappa-type opioid receptor. Description: Binding affinity to Opioid receptor kappa 1 by competitive inhibition of radioligand [3H]diprenorphine using cloned receptors transiently expressed on CHO cells. Type of experiment: cell-based.
Experiment [6] has as its target T2, Mu-type opioid receptor. Description: Binding affinity to Opioid receptor mu 1 by competitive inhibition of radioligand [3H]DAMGO using cloned receptors transiently expressed on CHO cells. Type of experiment: cell-based.
Experiment [7] concerns the target T3, Delta-type opioid receptor. Nature of the experiment: Binding affinity to Opioid receptor delta 1 by competitive inhibition of radioligand [3H]DPDPE using cloned receptors transiently expressed on CHO cells. Type of experiment: cell-based, Cavia porcellus.

As to `CC[C@H](C)[C@H](NC(=O)[C@H](CCCNC(=N)N)NC(=O)[C@@H]1CCCNC(=O)C[C@@H](NC(=O)CNC(=O)[C@@H](N)Cc2ccc(O)cc2)C(=O)N[C@@H](Cc2ccccc2)C(=O)N[C@@H](CC(C)C)C(=O)N1)C(=O)N[C@@H](CCCNC(=N)N)C(=O)N1CCC[C@H]1C(=O)N[C@@H](CCCCN)C(=O)N[C@@H](CC(C)C)C(=O)N[C@@H](CCCCN)C(N)=O`, in experiment [1], half-maximal inhibition (IC50) required 2700 nM. In addition, the values for the Ki in experiment [2], in experiment [3] and in experiment [4] were 200 nM, 320 nM and 320 nM, respectively.
As to `CC[C@H](C)[C@H](NC(=O)[C@H](CCCNC(=N)N)NC(=O)[C@H](CCCNC(=N)N)NC(=O)[C@H](CC(C)C)NC(=O)[C@H](Cc1ccccc1)NC(=O)[C@@H](CC(=O)O)NC(=O)CNC(=O)[C@@H](N)Cc1ccc(O)cc1)C(=O)N[C@@H](CCCNC(=N)N)C(=O)N1CCC[C@H]1C(=O)N[C@@H](CCCCN)C(=O)N[C@@H](CC(C)C)C(=O)N[C@@H](CCCCN)C(N)=O`, the IC50 in experiment [1] is 440 nM. Moreover, the values for the Ki in experiment [5], in experiment [6] and in experiment [7] were 28 nM, 180 nM and 430 nM, respectively.
Consider `CC[C@H](C)[C@H](NC(=O)[C@H](CCCNC(=N)N)NC(=O)[C@H](CN)NC(=O)[C@H](CC(C)C)NC(=O)[C@H](Cc1ccccc1)NC(=O)[C@@H](CC(=O)O)NC(=O)CNC(=O)[C@@H](N)Cc1ccc(O)cc1)C(=O)N[C@@H](CCCNC(=N)N)C(=O)N1CCC[C@H]1C(=O)N[C@@H](CCCCN)C(=O)N[C@@H](CC(C)C)C(=O)N[C@@H](CCCCN)C(N)=O`, for which inhibition in experiment [1] was half-maximal at 2800 nM (IC50). The Ki in experiment [2] (cos-7) was determined as 300 nM; in experiment [3] (cos-7) it was 100 nM; in experiment [4] (cos-7) it was 1300 nM.
On to `CC[C@H](C)[C@@H]1NC(=O)[C@H](CCCNC(=N)N)NC(=O)[C@H](NC(=O)[C@H](CC(C)C)NC(=O)[C@H](Cc2ccccc2)NC(=O)CNC(=O)CNC(=O)[C@@H](N)Cc2ccc(O)cc2)CC(=O)NCC[C@@H](C(=O)N2CCC[C@H]2C(=O)N[C@@H](CCCCN)C(=O)N[C@@H](CC(C)C)C(=O)N[C@@H](CCCCN)C(N)=O)NC1=O`, for which the Ki in experiment [5] came to 2.5 nM; in experiment [6], 4.8 nM; in experiment [7] it was 180 nM.
Consider `CC[C@H](C)[C@@H]1NC(=O)[C@H](CCCN=C(N)N)NC(=O)[C@H](NC(=O)[C@H](CC(C)C)NC(=O)[C@H](Cc2ccccc2)NC(=O)CNC(=O)CNC(=O)[C@@H](N)Cc2ccc(O)cc2)CC(=O)N[C@H](C(=O)N2CCC[C@H]2C(=O)N[C@@H](CCCCN)C(=O)N[C@@H](CC(C)C)C(=O)N[C@@H](CCCCN)C(=O)O)CCNC1=O`, for which the IC50 in experiment [1] was 22 nM.
On the same count and under the same terms, the result for `CC[C@H](C)[C@@H]1NC(=O)[C@H](CCCN=C(N)N)NC(=O)[C@H](NC(=O)[C@H](CC(C)C)NC(=O)[C@H](Cc2ccccc2)NC(=O)CNC(=O)CNC(=O)[C@@H](N)Cc2ccc(O)cc2)CC(=O)N[C@H](C(=O)N2CCC[C@H]2C(=O)N[C@@H](CCCCN)C(=O)N[C@@H](CC(C)C)C(=O)N[C@@H](CCCCN)C(=O)O)CNC1=O` reads 46 nM.
With `CC[C@H](C)[C@@H]1NC(=O)[C@H](CCCNC(=N)N)NC(=O)[C@H](NC(=O)[C@H](CC(C)C)NC(=O)[C@H](Cc2ccccc2)NC(=O)CNC(=O)CNC(=O)[C@@H](N)Cc2ccc(O)cc2)CC(=O)NC[C@@H](C(=O)N2CCC[C@H]2C(=O)N[C@@H](CCCCN)C(=O)N[C@@H](CC(C)C)C(=O)N[C@@H](CCCCN)C(N)=O)NC1=O`, the Ki came out at 2.6 nM in experiment [5] (cho), 4.4 nM in experiment [6] (cho) and 48 nM in experiment [7] (cho).
Take `CC(C)C[C@H](NC(=O)[C@H](CCCCN)NC(=O)[C@@H]1CCCN1C(=O)[C@H](CCCNC(=N)N)NC(=O)[C@@H]1CCNC(=O)C[C@@H](NC(=O)[C@H](Cc2ccccc2)NC(=O)CNC(=O)CNC(=O)[C@@H](N)Cc2ccc(O)cc2)C(=O)N[C@@H](CCCNC(=N)N)C(=O)N[C@@H](CCCNC(=N)N)C(=O)N1)C(=O)N[C@@H](CCCCN)C(N)=O`: the Ki was found to be 14 nM in experiment [5], 40 nM in experiment [6] and 4100 nM in experiment [7].
In turn, `CC(C)C[C@H](NC(=O)[C@H](CCCCN)NC(=O)[C@@H]1CCCN1C(=O)[C@H](CCCN=C(N)N)NC(=O)[C@@H]1CCNC(=O)[C@H](CCCN=C(N)N)NC(=O)[C@H](CCCN=C(N)N)NC(=O)[C@H](NC(=O)[C@H](Cc2ccccc2)NC(=O)CNC(=O)CNC(=O)[C@@H](N)Cc2ccc(O)cc2)CC(=O)N1)C(=O)N[C@@H](CCCCN)C(=O)O` showed an IC50 in experiment [1] of 1300 nM.
`CC[C@H](C)[C@H](NC(=O)[C@H](CCCNC(=N)N)NC(=O)[C@H](CCCNC(=N)N)NC(=O)[C@@H](CC(=O)O)NC(=O)[C@H](Cc1ccccc1)NC(=O)CNC(=O)CNC(=O)[C@@H](N)Cc1ccc(O)cc1)C(=O)N[C@@H](CCCNC(=N)N)C(=O)N1CCC[C@H]1C(=O)N[C@@H](CCCCN)C(=O)N[C@@H](CC(C)C)C(=O)N[C@@H](CCCCN)C(N)=O`: the inhibitory constant (Ki) in experiment [5] worked out at 58 nM; in experiment [6] it was 6.1 nM; in experiment [7], 1300 nM.
`CC[C@H](C)[C@H](NC(=O)[C@H](CCCNC(=N)N)NC(=O)[C@H](CCCNC(=N)N)NC(=O)[C@@H](CC(=O)O)NC(=O)[C@H](Cc1ccccc1)NC(=O)CNC(=O)CNC(=O)[C@@H](N)Cc1ccc(O)cc1)C(=O)N[C@@H](CCCNC(=N)N)C(=O)N1CCC[C@H]1C(=O)N[C@@H](CCCCN)C(=O)N[C@@H](CC(C)C)C(=O)N[C@@H](CCCCN)C(=O)O` registered an IC50 in experiment [1] of 1400 nM.
For the compound `CC(C)C[C@H](NC(=O)[C@H](CCCCN)NC(=O)[C@@H]1CCCN1C(=O)[C@H](CCCNC(=N)N)NC(=O)[C@H](CN)NC(=O)[C@H](CCCNC(=N)N)NC(=O)[C@H](CCCNC(=N)N)NC(=O)[C@@H](CC(=O)O)NC(=O)[C@H](Cc1ccccc1)NC(=O)CNC(=O)CNC(=O)[C@@H](N)Cc1ccc(O)cc1)C(=O)N[C@@H](CCCCN)C(N)=O`, the Ki in experiment [5] was found to be 20 nM; in experiment [6], 8.3 nM; in experiment [7] it was 1600 nM.
In experiment [1], `CC[C@H](C)[C@H](NC(=O)[C@H](CCCNC(=N)N)NC(=O)[C@@H](CC(=O)O)NC(=O)[C@H](CC(C)C)NC(=O)[C@H](Cc1ccccc1)NC(=O)CNC(=O)CNC(=O)[C@@H](N)Cc1ccc(O)cc1)C(=O)N[C@@H](CN)C(=O)N1CCC[C@H]1C(=O)N[C@@H](CCCCN)C(=O)N[C@@H](CC(C)C)C(=O)N[C@@H](CCCCN)C(N)=O` had an IC50 of 74 nM. Moreover, the Ki was 12 nM in experiment [5] (cho), 1.5 nM in experiment [6] (cho) and 8.2 nM in experiment [7] (cho).
In experiment [1], `CC[C@H](C)[C@H](NC(=O)[C@H](CCCNC(=N)N)NC(=O)[C@@H](CC(=O)O)NC(=O)[C@H](CC(C)C)NC(=O)[C@H](Cc1ccccc1)NC(=O)CNC(=O)CNC(=O)[C@@H](N)Cc1ccc(O)cc1)C(=O)N[C@@H](CCCNC(=N)N)C(=O)N1CCC[C@H]1C(=O)N[C@@H](CCCCN)C(=O)N[C@@H](CC(C)C)C(=O)N[C@@H](CCCCN)C(N)=O` had an IC50 of 29 nM. Besides, the results for the Ki in experiment [5], in experiment [6] and in experiment [7] were 8 nM, 1.2 nM and 22 nM, respectively.
For `CC(C)C[C@H](NC(=O)[C@H](CCCCN)NC(=O)[C@@H]1CCCN1C(=O)[C@H](CCCNC(=N)N)NC(=O)[C@@H]1CNC(=O)C[C@@H](NC(=O)[C@H](Cc2ccccc2)NC(=O)CNC(=O)CNC(=O)[C@@H](N)Cc2ccc(O)cc2)C(=O)N[C@@H](CCCNC(=N)N)C(=O)N[C@@H](CCCNC(=N)N)C(=O)N1)C(=O)N[C@@H](CCCCN)C(N)=O`, the values for the inhibition constant Ki in experiment [5], in experiment [6] and in experiment [7] were 8 nM, 75 nM and 3300 nM, respectively.
As to `CC(C)C[C@H](NC(=O)[C@H](CCCCN)NC(=O)[C@@H]1CCCN1C(=O)[C@H](CCCN=C(N)N)NC(=O)[C@@H]1CNC(=O)[C@H](CCCN=C(N)N)NC(=O)[C@H](CCCN=C(N)N)NC(=O)[C@H](NC(=O)[C@H](Cc2ccccc2)NC(=O)CNC(=O)CNC(=O)[C@@H](N)Cc2ccc(O)cc2)CC(=O)N1)C(=O)N[C@@H](CCCCN)C(=O)O`, in experiment [1], the IC50 was above 5000 nM.
`CC[C@H](C)[C@@H]1NC(=O)[C@H](CCCNC(=N)N)NC(=O)[C@H](NC(=O)[C@H](CC(C)C)NC(=O)[C@H](Cc2ccccc2)NC(=O)CNC(=O)CNC(=O)[C@@H](N)Cc2ccc(O)cc2)CC(=O)NCCC[C@@H](C(=O)N2CCC[C@H]2C(=O)N[C@@H](CCCCN)C(=O)N[C@@H](CC(C)C)C(=O)N[C@@H](CCCCN)C(N)=O)NC1=O` displayed an IC50 in experiment [1] of 6.8 nM. Besides, the inhibition constant Ki was determined as 1.5 nM in experiment [5], 3.2 nM in experiment [6] and 28 nM in experiment [7].
Take `CC(C)C[C@H](NC(=O)[C@H](CCCCN)NC(=O)[C@@H]1CCCN1C(=O)[C@H](CCCN=C(N)N)NC(=O)[C@@H]1CCCNC(=O)[C@H](CCCN=C(N)N)NC(=O)[C@H](CCCN=C(N)N)NC(=O)[C@H](NC(=O)[C@H](Cc2ccccc2)NC(=O)CNC(=O)CNC(=O)[C@@H](N)Cc2ccc(O)cc2)CC(=O)N1)C(=O)N[C@@H](CCCCN)C(=O)O`: in experiment [1], the IC50 stood at 530 nM.
For the compound `CC(C)C[C@H](NC(=O)[C@H](CCCCN)NC(=O)[C@@H]1CCCN1C(=O)[C@H](CCCNC(=N)N)NC(=O)[C@@H]1CCCNC(=O)C[C@@H](NC(=O)[C@H](Cc2ccccc2)NC(=O)CNC(=O)CNC(=O)[C@@H](N)Cc2ccc(O)cc2)C(=O)N[C@@H](CCCNC(=N)N)C(=O)N[C@@H](CCCNC(=N)N)C(=O)N1)C(=O)N[C@@H](CCCCN)C(N)=O`, the Ki in experiment [5] amounted to 12 nM; in experiment [6] it was 62 nM; in experiment [7], 1900 nM.
As to `CC[C@H](C)[C@H](NC(=O)[C@H](CCCNC(=N)N)NC(=O)[C@H](CCCNC(=N)N)NC(=O)[C@H](CC(C)C)NC(=O)[C@H](Cc1ccccc1)NC(=O)CNC(=O)CNC(=O)[C@@H](N)Cc1ccc(O)cc1)C(=O)N[C@@H](CCCNC(=N)N)C(=O)N1CCC[C@H]1C(=O)N[C@@H](CCCCN)C(=O)N[C@@H](CC(C)C)C(=O)N[C@@H](CCCCN)C(=O)O` [ANALOG OF DYNORPHIN A], in experiment [1], half-maximal inhibition (IC50) was put at 0.19 nM. Further, the Ki came to 0.31 nM in experiment [5], 0.92 nM in experiment [6] and 28.4 nM in experiment [7].

Values taken from ChEMBL document CHEMBL1130436, “Synthesis and opioid activity of conformationally constrained dynorphin A analogues. 2. Conformational constraint in the "address" sequence” (J Med Chem, 1997).
